From PMC7681098 (Theranostics, 2021)
Like-named read-outs stand apart in the source and are kept apart here.

Assays:
FLT3 [1] = biological target: T1, FLT3 (Homo sapiens, UniProt P36888); test: Biolayer interferometry (BLI) binding assay; details: ForteBio Octet, 0.3 nM to 1000 nM
T1 construct: The intracellular domain of FLT3 (residues 571-994) was cloned into pMal-c2X; MBP (N); made in house; host or cells: E. coli BL21
Method: The intracellular domain of FLT3 (residues 571-994) was cloned into pMal-c2X containing an N-terminal MBP-tag with a TEV protease cleavage site. The recombinant vector was transformed into E. coli. BL21. Expression and purification of recombinant FLT3 were performed as described previously [25]-[27].
(§1) All studies were performed with the Super Streptavidin (SSA) biosensors (CA, USA). All binding experiments were performed according to the manufacturer's instructions. For the cellular thermal shift assay (CETSA), experiments were performed as described previously.
(§2) A concentration range from 0.3 nM to 1000 nM was defined (Figure 1B). […] CETSA has been used to identify FLT3-LT-171-861 interactions in live cell settings. […] We first verified that the inhibitor could stabilize FLT3 against denaturation using Western blot. […] An obvious thermal shift of the melting curve was detected in the LT-171-861-treated sample (Figure 1C). […] Accordingly, we identified 53 °C as the optimal temperature for isothermal […] fingerprint (ITDRF) CETSA.
(A) Chemical structure of LT-171-861. […] Data were then fitted to obtain KD value. […] Data were first normalized by setting the highest and lowest value in each set to 100% and 0% respectively. […] Cell viability was evaluated by MTT assay respectively. The IC50 values were calculated using nonlinear regression.

FLT3 [2] = biological target: FLT3 (Homo sapiens, UniProt P36888); test: Cellular thermal shift assay (CETSA / ITDRF CETSA) in MV4-11 cells; format: binding
Method: as §1, §2
(A) Chemical structure of LT-171-861. […] Data were then fitted to obtain KD value. […] Data were first normalized by setting the highest and lowest value in each set to 100% and 0% respectively. Data were obtained in the presence of the LT-171-861 (blue circle) as positive the control and DMSO (red square) as the negative control. All experiments were performed at three independent occasions and data are given as the mean ± SD. […] Cell viability was evaluated by MTT assay respectively. The IC50 values were calculated using nonlinear regression.

FGFR1 = biological target: T2, FGFR1 (Homo sapiens, UniProt P11362); test: Kinase inhibition assay (Reaction Biology); format: biochemical
T2 construct: purchased Reaction Biology Corporation (PA, USA)
T2 sequence (P11362 22-822): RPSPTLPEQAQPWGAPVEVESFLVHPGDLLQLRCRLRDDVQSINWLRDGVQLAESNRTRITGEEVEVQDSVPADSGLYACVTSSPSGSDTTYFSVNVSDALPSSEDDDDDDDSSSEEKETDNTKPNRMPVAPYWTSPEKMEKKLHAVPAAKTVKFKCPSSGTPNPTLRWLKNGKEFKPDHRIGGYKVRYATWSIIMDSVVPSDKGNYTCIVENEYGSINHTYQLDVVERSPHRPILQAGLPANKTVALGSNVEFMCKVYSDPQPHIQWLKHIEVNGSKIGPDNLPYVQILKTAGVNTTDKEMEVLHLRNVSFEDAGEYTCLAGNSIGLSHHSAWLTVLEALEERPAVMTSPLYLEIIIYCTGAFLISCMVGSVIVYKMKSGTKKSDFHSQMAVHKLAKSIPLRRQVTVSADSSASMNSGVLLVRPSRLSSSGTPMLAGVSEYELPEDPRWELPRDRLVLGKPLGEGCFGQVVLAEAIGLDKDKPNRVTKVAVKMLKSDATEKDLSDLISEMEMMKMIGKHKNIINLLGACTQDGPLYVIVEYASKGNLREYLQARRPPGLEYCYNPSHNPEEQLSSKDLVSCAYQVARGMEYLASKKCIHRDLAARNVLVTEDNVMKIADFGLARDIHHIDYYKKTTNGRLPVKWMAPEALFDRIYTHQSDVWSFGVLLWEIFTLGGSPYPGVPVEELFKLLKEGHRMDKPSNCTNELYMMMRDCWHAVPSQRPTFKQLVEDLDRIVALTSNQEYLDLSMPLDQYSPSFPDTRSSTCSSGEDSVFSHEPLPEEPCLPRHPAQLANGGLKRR

FLT1/VEGFR1 = biological target: T3, FLT1/VEGFR1 (Homo sapiens, UniProt P17948); test: Kinase inhibition assay (Reaction Biology); format: biochemical
T3 construct: purchased Reaction Biology Corporation (PA, USA)
T3 sequence (P17948 27-1338): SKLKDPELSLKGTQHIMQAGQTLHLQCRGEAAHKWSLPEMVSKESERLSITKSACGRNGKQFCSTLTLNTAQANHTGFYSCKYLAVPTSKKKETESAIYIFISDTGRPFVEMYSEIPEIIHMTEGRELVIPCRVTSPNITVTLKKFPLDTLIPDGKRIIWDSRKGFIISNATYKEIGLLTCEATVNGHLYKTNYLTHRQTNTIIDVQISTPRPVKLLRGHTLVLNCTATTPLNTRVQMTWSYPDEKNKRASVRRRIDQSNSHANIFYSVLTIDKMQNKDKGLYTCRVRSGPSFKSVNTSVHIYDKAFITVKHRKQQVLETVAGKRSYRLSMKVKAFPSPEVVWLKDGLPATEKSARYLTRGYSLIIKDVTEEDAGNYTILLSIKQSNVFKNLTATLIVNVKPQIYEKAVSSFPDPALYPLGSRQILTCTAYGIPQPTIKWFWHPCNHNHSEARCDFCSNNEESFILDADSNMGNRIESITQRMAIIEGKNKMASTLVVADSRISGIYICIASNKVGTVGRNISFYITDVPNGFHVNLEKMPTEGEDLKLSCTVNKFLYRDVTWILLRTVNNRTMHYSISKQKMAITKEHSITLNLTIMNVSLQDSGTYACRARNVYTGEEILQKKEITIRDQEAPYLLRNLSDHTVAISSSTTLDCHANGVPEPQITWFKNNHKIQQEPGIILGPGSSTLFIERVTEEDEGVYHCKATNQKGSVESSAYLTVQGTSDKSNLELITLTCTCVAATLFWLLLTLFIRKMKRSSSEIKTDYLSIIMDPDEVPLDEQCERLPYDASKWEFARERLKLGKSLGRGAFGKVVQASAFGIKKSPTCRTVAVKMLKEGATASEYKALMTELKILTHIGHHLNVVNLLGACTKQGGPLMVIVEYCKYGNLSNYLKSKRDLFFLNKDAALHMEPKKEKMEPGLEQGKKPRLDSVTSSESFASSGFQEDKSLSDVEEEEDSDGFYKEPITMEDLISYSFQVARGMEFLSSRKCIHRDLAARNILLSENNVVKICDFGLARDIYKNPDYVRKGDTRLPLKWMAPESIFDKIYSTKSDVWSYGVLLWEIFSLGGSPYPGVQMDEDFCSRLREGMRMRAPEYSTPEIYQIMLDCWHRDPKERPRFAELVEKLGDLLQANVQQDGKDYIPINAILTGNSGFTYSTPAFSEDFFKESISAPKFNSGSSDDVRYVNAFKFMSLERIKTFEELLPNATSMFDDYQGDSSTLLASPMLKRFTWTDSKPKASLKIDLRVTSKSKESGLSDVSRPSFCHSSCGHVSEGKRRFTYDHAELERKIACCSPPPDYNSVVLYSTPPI

FLT3 [3] = biological target: T4, FLT3 (Homo sapiens, UniProt P36888); test: Kinase inhibition assay (Reaction Biology); format: biochemical
T4 construct: purchased Reaction Biology Corporation (PA, USA)

FLT3 (D835Y) = biological target: T5, FLT3 (D835Y) (Homo sapiens, UniProt P36888, D835Y); test: Kinase inhibition assay (Reaction Biology); format: biochemical
T5 construct: purchased Reaction Biology Corporation (PA, USA)

FMS = biological target: T6, FMS (Homo sapiens, UniProt P07333); test: Kinase inhibition assay (Reaction Biology); format: biochemical
T6 construct: purchased Reaction Biology Corporation (PA, USA)
T6 sequence (P07333 20-972): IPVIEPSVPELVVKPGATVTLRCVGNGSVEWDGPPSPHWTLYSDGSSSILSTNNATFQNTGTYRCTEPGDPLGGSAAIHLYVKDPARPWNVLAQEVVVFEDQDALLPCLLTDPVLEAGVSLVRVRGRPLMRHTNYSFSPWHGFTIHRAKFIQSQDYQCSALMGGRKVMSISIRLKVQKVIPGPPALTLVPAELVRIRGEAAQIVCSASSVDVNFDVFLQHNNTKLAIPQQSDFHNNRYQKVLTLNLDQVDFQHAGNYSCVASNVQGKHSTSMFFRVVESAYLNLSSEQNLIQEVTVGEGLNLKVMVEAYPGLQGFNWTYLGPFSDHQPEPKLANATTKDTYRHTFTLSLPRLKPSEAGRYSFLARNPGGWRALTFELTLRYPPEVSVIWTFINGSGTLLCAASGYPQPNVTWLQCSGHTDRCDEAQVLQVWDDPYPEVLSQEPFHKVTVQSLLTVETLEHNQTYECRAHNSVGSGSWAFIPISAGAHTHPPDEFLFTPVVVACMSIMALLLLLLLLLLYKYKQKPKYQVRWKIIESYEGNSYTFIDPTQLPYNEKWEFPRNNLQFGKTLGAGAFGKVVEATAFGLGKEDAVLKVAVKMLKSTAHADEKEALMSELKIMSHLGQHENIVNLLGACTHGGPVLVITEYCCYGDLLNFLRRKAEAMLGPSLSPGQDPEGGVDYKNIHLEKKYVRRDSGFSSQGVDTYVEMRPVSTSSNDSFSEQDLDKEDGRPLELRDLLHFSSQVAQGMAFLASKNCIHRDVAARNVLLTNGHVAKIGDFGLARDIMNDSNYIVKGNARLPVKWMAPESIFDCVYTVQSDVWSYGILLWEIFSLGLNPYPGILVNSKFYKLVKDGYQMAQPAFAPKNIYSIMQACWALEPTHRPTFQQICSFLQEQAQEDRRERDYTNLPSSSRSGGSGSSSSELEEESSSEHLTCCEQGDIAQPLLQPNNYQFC

[4] = test system: BaF3 cells with FLT3-D835Y; test: Cell viability of transformed BaF3 cells; format: cell-based, murine; details: Mus musculus, read-out: BaF3 cells with FLT3 mutants IC50 D835Y
Method: (§3) Lentivirus packaging and construction of transformed BaF3 cells were performed as described previously. […] Supernatants were collected and used to infect BaF3 cells, and transduced BaF3 cells were selected with puromycin (1 μg/ml) to obtain stably transformed cells.
(§4) The conditional medium (CM) was prepared from the supernatant of HS-5 cell culture for 5 days under normal culture conditions. At the indicated time point, cell viability was evaluated by MTT assay.

[5] = test system: BaF3 cells with FLT3-ITD/D835Y; test: Cell viability of transformed BaF3 cells; format: cell-based, murine
Method: as §3, §4

BaF3 cells with FLT3-ITD = test: Cell viability of transformed BaF3 cells; format: cell-based, murine; details: Mus musculus, read-out: BaF3 cells with FLT3 mutants IC50 ITD
Method: as §3, §4

MOLM13 cells = test: Stroma-protecting model: proliferation in HS-5 conditional medium or normal medium; format: cell-based; details: Homo sapiens, MOLM-13, 72 h, MTT
Method: At the indicated time point, cell viability was evaluated by MTT assay.
(A) Indicated FLT3 mutations were expressed in BaF3 cells respectively. […] The autophosphorylation level of FLT3 was visualized and compared by western blot analysis. […] The CM was prepared from HS-5 cell culture for 4 days under routine culture conditions, clarified by centrifugation, and used immediately. The CM was added to complete medium at a final concentration of 40%. Cell viabilities were measured by MTT assay. Data were shown as mean±SD. […] The FLT3 phosphorylation levels of FLT3, STAT5 and ERK 1/2 were determined by Western blot.
On the other hand, the bone marrow stroma-protecting environment containing a number of cytokines (e.g. FLT3 ligand, stromal derived factor-1, etc) could also decrease the drug efficacy of FLT3 inhibitors by activating FLT3 or its downstream effectors and building cross-talk between leukemic blasts and bone marrow microenvironment, [35].

PK study in mice = format: in vivo, BALB/c mice; details: for MRT last: read-out: MRT(0-t); for MRT inf: read-out: MRT(0-∞); for concentration at 12 h: read-out: plasma concentration 12 h after administration; for half-life: read-out: apparent plasma half-life (t1/2z) (converted)
Method: After dosing, blood samples were collected at indicated time points (15 min, 30 min, 45 min, 60 min, 90 min, 2 h, 4 h, 6 h, 8 h, 12 h, 24 h). Blood samples from each group were collected at each time point and the supernatant was collected and used for HPLC/LC-MAS analysis.
Then, plasma levels of LT-171-861 were measured at each indicated time point. […] This inhibition efficacy lasted for 24 h, in accordance with the results of the PK experiment.

[6] = female, BALB/c, mouse, plasma, 10 mg/kg, IV
[7] = female, BALB/c, mouse, plasma, po, 10 mg/kg, IG

With `CN1CCN(Cc2ccc(NC(=O)c3n[nH]cc3Nc3ncnc4[nH]ccc34)cc2)CC1` [LT-171-861] the Kd (FLT3 [1]) was 0.00331 µM, the Kd (FLT3 [2]; 1 h, 53 °C, read-out: fitted Kd value (ITDRF CETSA)) was 0.0785 µM and the “apparent aggregation temperature (Tagg) for FLT3” value (FLT3 [2]; LT-171-861 10 µM 1 h, 49.11 °C without LT-171-861) was 52.91 °C. The IC50 (FGFR1) was 0.02 µM, the IC50 (FLT1/VEGFR1) was 0.0056 µM and the IC50 (FLT3 [3]) was under 0.001 µM. The IC50 (FLT3 [3]; 10 μM ATP, 10-dose IC50 mode) was 0.000234 µM, the IC50 (FLT3 (D835Y)) was under 0.001 µM and the IC50 (FLT3 (D835Y); 10 μM ATP, 10-dose IC50 mode) was 0.000132 µM. The IC50 (FMS) was over 0.2 µM, the IC50 (FMS; 10 μM ATP, 10-dose IC50 mode) was 0.247 µM and the IC50 [4] was 0.0233 µM. The “IC50 lower than that of sorafenib in cells bearing ITD-D835Y mutations” value ([5]; BaF3 FLT3-ITD-D835Y) was about 16 fold, the IC50 ([5]; Mus musculus, BaF3, cell viability, read-out: BaF3 cells with FLT3 mutants IC50 ITD-D835Y) was 0.0572 µM and the IC50 (BaF3 cells with FLT3-ITD) was 0.0041 µM. For the same compound, the IC50 (MOLM13 cells; HS-5 conditional medium (CM) 40%, read-out: IC50 proliferation of MOLM13 cells in CM) was 0.0247 µM, the IC50 (MOLM13 cells; normal medium (NM), read-out: IC50 proliferation of MOLM13 cells in NM) was 0.0199 µM and the CLz (PK study in mice; 10 mg/kg, IG) was 314.0953 mL/min/kg. It also gave a Vz (PK study in mice; 10 mg/kg, IG) of 100.1863 L/kg, an AUC(0-inf) (PK study in mice; [6]) of 3380 ng·h/mL and an AUC(0-t) (PK study in mice; [6]) of 3310 ng·h/mL. The clearance (PK study in mice; female, BALB/c, mouse, plasma, 10 mg/kg, IV, read-out: CLz (converted)) was 49.3 mL/min/kg, the MRT last (PK study in mice; [6]) was 1.86 h and the MRT inf (PK study in mice; [6]) was 2.1 h. The Vd (PK study in mice; female, BALB/c, mouse, plasma, 10 mg/kg, IV, read-out: Vz) was 8.61 L/kg, the Cmax (PK study in mice; female, BALB/c, mouse, plasma, 10 mg/kg, intravenous injection (IV)) was 2170 ng/mL and the Cmax (PK study in mice; female, BALB/c, mouse, plasma, 10 mg/kg, oral administration) was 200 nM. For the same compound, the Cmax (PK study in mice; female, BALB/c, mouse, plasma, 10 mg/kg, oral administration (IG)) was 88 ng/mL, the concentration at 12 h (PK study in mice; female, BALB/c, mouse, plasma, intravenous, 10 mg/kg, i.v) was 50.1 nM and the half-life (PK study in mice; female, BALB/c, mouse, plasma, iv, 10 mg/kg, intravenous (tail) injection (IV)) was 2.02 h. The bioavailability (PK study in mice; female, BALB/c, mouse, plasma, oral versus intravenous at 10 mg/kg) was about 15%, the concentration at 12 h (PK study in mice; female, BALB/c, mouse, plasma, oral, 10 mg/kg, p.o) was 30 nM and the AUC(0-inf) (PK study in mice; [7]) was 531 ng·h/mL. The AUC(0-t) (PK study in mice; [7]) was 463 ng·h/mL, the MRT last (PK study in mice; [7]) was 4.28 h and the MRT inf (PK study in mice; [7]) was 5.95 h. For the same compound, the Tmax (PK study in mice; female, BALB/c, mouse, plasma, po, 10 mg/kg, oral administration (IG), read-out: Tmax (time to maximum plasma level)) was 1 h and the half-life (PK study in mice; female, BALB/c, mouse, plasma, po, 10 mg/kg, oral administration (IG)) was 3.68 h.
